# Data from US12377110B2, “Fospropofol methods and compositions” (Epalex Corporation, priority 2019, dated 2025).
# How the values were obtained:
# Sprague-Dawley rats = test: Study No. 15-3 (GLP): 14-day once daily oral gavage toxicity of fospropofol disodium; format: in vivo
# Protocol: (§1) The purpose of Study No. 15-3 (GLP) was to determine the potential toxicity of fospropofol in Sprague-Dawley rats when administered once daily by oral gavage for 14 days. […] The cause of death for the three 250 mg/kg/day group main study females found dead could not be determined, but was considered related to the pharmacodynamic effects of fospropofol, based on the time of death relative to the time of close administration, and the clinical signs recorded before death. Clinical observations during the closing period for these animals included labored breathing, prostrate, splayed hindlimbs, uncoordinated movement, decreased activity, and eyes closed.
# (§2) Pivotal GLP 14-day repeat-close toxicity studies with 7-day recovery periods were conducted in Sprague-Dawley rats (Study No. 15-3) and Beagle dogs (Study No. 15-4). […] The cause of death for these animals was considered to be related to the known pharmacodynamic effects of high doses of fospropofol, based on the time of death relative to the time of close administration, and the clinical signs recorded before death which included: labored breathing, prostrate, splayed hindlimbs, uncoordinated movement, decreased activity, and eyes closed. […] The NOAEL was determined to be 100 mg/kg/day (600 mg/m^2/day) in male and female Sprague-Dawley rats.
# [1] = as above; format: in vivo, Sprague-Dawley rats; conditions: both sexes, rat, in vivo; 14 days once daily oral gavage, Sprague-Dawley rats
# Protocol: as §1, §2
smiles,measurement,setting,value
CC(C)c1cccc(C(C)C)c1OCOP(=O)([O-])O.[Na+] [fospropofol disodium],Mortality,"Sprague-Dawley rats; 0, 50, 100, and 250 mg/kg/day for 14 consecutive days",treatment-related mortalities at 250 mg/kg/day
same,Body weight gain,Sprague-Dawley rats; 250 mg/kg/day,reduced body weight gain
same,Prothrombin time,Sprague-Dawley rats; 250 mg/kg/day,transient increase in prothrombin time
same,Gross observations and microscopic findings,Sprague-Dawley rats; 250 mg/kg/day main study females found dead,no treatment-related gross observations or microscopic findings
same,NOAEL,"Sprague-Dawley rats; 14 days once daily oral gavage, Sprague-Dawley rats",600 mg/m^2/day
same,Mortalities,"Sprague-Dawley rats; high dose level (250 mg/kg/day), 14 days",4
same,"Histopathology, all tissues including GIT-related",Sprague-Dawley rats; up to 250 mg/kg/day,no treatment-related histopathology findings
same,NOAEL at 14 days,[1],100 mg/kg/day
